{"source": "PubChem BioAssay (NCI)", "assay_in_all_cases": "inhibition of tumour cell growth, NCI panel, 48 h", "key": {"[1]": {"test_system": "786-0 renal"}, "[2]": {"test_system": "A498 renal"}, "[3]": {"test_system": "LOX IMVI melanoma"}, "[4]": {"test_system": "MCF7 breast"}, "[5]": {"test_system": "NCI-H522 lung"}, "[6]": {"test_system": "U251 CNS"}, "[7]": {"test_system": "UACC-62 melanoma"}, "[8]": {"test_system": "UO-31 renal"}, "[9]": {"test_system": "UACC-257 melanoma"}}, "note": "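Tested at 5 concentrations; 48 h exposure; 96-well plates; endpoints linearly interpolated, else capped at highest concentration. GI50 is the concentration that inhibits growth by half. TGI marks complete inhibition of growth.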"}
{"compound": "O=C1C(Cl)=C(Nc2cccc(Cl)c2)C(=O)N1Cc1ccccc1", "values": [{"measurement": "GI50", "setting": "[1]", "result": 3.85, "unit": "µM"}, {"measurement": "TGI", "setting": "[1]", "result": 16.2, "unit": "µM"}, {"measurement": "GI50", "setting": "[2]", "result": 10.6, "unit": "µM"}, {"measurement": "TGI", "setting": "[2]", "result": 22.7, "unit": "µM"}, {"measurement": "GI50", "setting": "[3]", "result": 4.01, "unit": "µM"}, {"measurement": "TGI", "setting": "[3]", "result": 15.3, "unit": "µM"}, {"measurement": "GI50", "setting": "[4]", "result": 14.9, "unit": "µM"}, {"measurement": "TGI", "setting": "[4]", "result": "> 100", "unit": "µM"}, {"measurement": "GI50", "setting": "[5]", "result": 14.2, "unit": "µM"}, {"measurement": "TGI", "setting": "[5]", "result": "> 100", "unit": "µM"}, {"measurement": "GI50", "setting": "[6]", "result": 3.98, "unit": "µM"}, {"measurement": "TGI", "setting": "[6]", "result": 15.5, "unit": "µM"}, {"measurement": "GI50", "setting": "[7]", "result": 12.4, "unit": "µM"}, {"measurement": "TGI", "setting": "[7]", "result": 27.5, "unit": "µM"}, {"measurement": "GI50", "setting": "[8]", "result": 6.94, "unit": "µM"}, {"measurement": "TGI", "setting": "[8]", "result": 25.8, "unit": "µM"}]}
{"compound": "CC[C@]12CCCN3CCc4c(n(c5ccccc45)C(=O)C1)[C@@H]32", "values": [{"measurement": "TGI", "setting": "[1]", "result": "> 56.2", "unit": "µM"}, {"measurement": "TGI", "setting": "[2]", "result": "> 65.9", "unit": "µM"}, {"measurement": "TGI", "setting": "[3]", "result": "> 100", "unit": "µM"}, {"measurement": "TGI", "setting": "[4]", "result": "> 100", "unit": "µM"}, {"measurement": "TGI", "setting": "[5]", "result": 7.2, "unit": "µM"}, {"measurement": "TGI", "setting": "[6]", "result": "> 52.2", "unit": "µM"}, {"measurement": "TGI", "setting": "[9]", "result": "> 100", "unit": "µM"}, {"measurement": "TGI", "setting": "[7]", "result": "> 100", "unit": "µM"}, {"measurement": "TGI", "setting": "[8]", "result": "> 100", "unit": "µM"}]}
{"compound": "Cc1ccc(S(=O)(=O)OC2CCN(C)CC2)cc1", "values": [{"measurement": "TGI", "setting": "[1]", "result": "> 100", "unit": "µM"}, {"measurement": "TGI", "setting": "[3]", "result": "> 100", "unit": "µM"}, {"measurement": "TGI", "setting": "[4]", "result": "> 100", "unit": "µM"}, {"measurement": "TGI", "setting": "[5]", "result": 46.5, "unit": "µM"}, {"measurement": "TGI", "setting": "[6]", "result": "> 100", "unit": "µM"}, {"measurement": "TGI", "setting": "[9]", "result": "> 100", "unit": "µM"}, {"measurement": "TGI", "setting": "[7]", "result": "> 100", "unit": "µM"}]}
{"compound": "Cc1ccc(NC(=O)c2cc3cc(N=Nc4ccc(Br)cc4)ccc3oc2=O)cc1", "values": [{"measurement": "TGI", "setting": "[1]", "result": "> 100", "unit": "µM"}, {"measurement": "TGI", "setting": "[2]", "result": "> 100", "unit": "µM"}, {"measurement": "TGI", "setting": "[3]", "result": "> 100", "unit": "µM"}, {"measurement": "TGI", "setting": "[5]", "result": "> 100", "unit": "µM"}, {"measurement": "TGI", "setting": "[6]", "result": "> 100", "unit": "µM"}, {"measurement": "TGI", "setting": "[9]", "result": "> 100", "unit": "µM"}]}
{"compound": "COc1ccccc1NC(=O)c1sc2nc3c(cc2c1N)C(=O)CCC3", "values": [{"measurement": "GI50", "setting": "[1]", "result": 4.05, "unit": "µM"}, {"measurement": "TGI", "setting": "[1]", "result": "> 100", "unit": "µM"}, {"measurement": "GI50", "setting": "[2]", "result": 1.84, "unit": "µM"}, {"measurement": "TGI", "setting": "[2]", "result": "> 100", "unit": "µM"}, {"measurement": "GI50", "setting": "[3]", "result": "> 100", "unit": "µM"}, {"measurement": "TGI", "setting": "[3]", "result": "> 100", "unit": "µM"}, {"measurement": "GI50", "setting": "[4]", "result": 4.8, "unit": "µM"}, {"measurement": "TGI", "setting": "[4]", "result": "> 100", "unit": "µM"}, {"measurement": "GI50", "setting": "[5]", "result": 0.586, "unit": "µM"}, {"measurement": "TGI", "setting": "[5]", "result": 38.7, "unit": "µM"}, {"measurement": "GI50", "setting": "[6]", "result": 4.64, "unit": "µM"}, {"measurement": "TGI", "setting": "[6]", "result": "> 100", "unit": "µM"}, {"measurement": "GI50", "setting": "[7]", "result": 3.99, "unit": "µM"}, {"measurement": "TGI", "setting": "[7]", "result": "> 100", "unit": "µM"}]}
{"compound": "COc1ccc(OC)c(/C=N/NC(=O)Cc2csc3nc(-c4ccc(Br)cc4)cn23)c1", "values": [{"measurement": "GI50", "setting": "[1]", "result": 26.3, "unit": "µM"}, {"measurement": "TGI", "setting": "[1]", "result": "> 100", "unit": "µM"}, {"measurement": "GI50", "setting": "[3]", "result": 12.6, "unit": "µM"}, {"measurement": "TGI", "setting": "[3]", "result": 47.4, "unit": "µM"}, {"measurement": "GI50", "setting": "[4]", "result": 29.7, "unit": "µM"}, {"measurement": "TGI", "setting": "[4]", "result": "> 100", "unit": "µM"}, {"measurement": "GI50", "setting": "[5]", "result": 22.7, "unit": "µM"}, {"measurement": "TGI", "setting": "[5]", "result": "> 100", "unit": "µM"}, {"measurement": "GI50", "setting": "[6]", "result": 13.8, "unit": "µM"}, {"measurement": "TGI", "setting": "[6]", "result": 31.4, "unit": "µM"}, {"measurement": "GI50", "setting": "[9]", "result": 23.9, "unit": "µM"}, {"measurement": "TGI", "setting": "[9]", "result": 97.5, "unit": "µM"}, {"measurement": "GI50", "setting": "[7]", "result": 12.1, "unit": "µM"}, {"measurement": "TGI", "setting": "[7]", "result": 27.7, "unit": "µM"}, {"measurement": "GI50", "setting": "[8]", "result": 60.6, "unit": "µM"}, {"measurement": "TGI", "setting": "[8]", "result": "> 100", "unit": "µM"}]}
{"compound": "CCSCC1CC(O)(c2ccccc2)C(c2ccccc2)C(c2ccc(Cl)cc2)O1", "note": "(stereo not drawn)", "values": [{"measurement": "GI50", "setting": "[1]", "result": 1.64, "unit": "µM"}, {"measurement": "TGI", "setting": "[1]", "result": 3.26, "unit": "µM"}, {"measurement": "GI50", "setting": "[2]", "result": 1.79, "unit": "µM"}, {"measurement": "TGI", "setting": "[2]", "result": 3.41, "unit": "µM"}, {"measurement": "GI50", "setting": "[3]", "result": 1.65, "unit": "µM"}, {"measurement": "TGI", "setting": "[3]", "result": 3.05, "unit": "µM"}, {"measurement": "GI50", "setting": "[4]", "result": 1.85, "unit": "µM"}, {"measurement": "TGI", "setting": "[4]", "result": 5.35, "unit": "µM"}, {"measurement": "GI50", "setting": "[6]", "result": 1.63, "unit": "µM"}, {"measurement": "TGI", "setting": "[6]", "result": 3.32, "unit": "µM"}, {"measurement": "GI50", "setting": "[9]", "result": 1.83, "unit": "µM"}, {"measurement": "TGI", "setting": "[9]", "result": 3.95, "unit": "µM"}, {"measurement": "GI50", "setting": "[7]", "result": 1.4, "unit": "µM"}, {"measurement": "TGI", "setting": "[7]", "result": 3.01, "unit": "µM"}, {"measurement": "GI50", "setting": "[8]", "result": 1.07, "unit": "µM"}, {"measurement": "TGI", "setting": "[8]", "result": 2.43, "unit": "µM"}]}
{"compound": "O=C1c2ccccc2-c2c1c1ccccc1c(=O)n2CCCCNCCCn1c2c(c3ccccc3c1=O)C(=O)c1ccccc1-2", "values": [{"measurement": "GI50", "setting": "[1]", "result": 0.0318, "unit": "µM"}, {"measurement": "TGI", "setting": "[1]", "result": 0.699, "unit": "µM"}, {"measurement": "GI50", "setting": "[2]", "result": 1.49, "unit": "µM"}, {"measurement": "TGI", "setting": "[2]", "result": 5.64, "unit": "µM"}, {"measurement": "GI50", "setting": "[3]", "result": 0.0499, "unit": "µM"}, {"measurement": "TGI", "setting": "[3]", "result": 0.76, "unit": "µM"}, {"measurement": "GI50", "setting": "[4]", "result": 0.345, "unit": "µM"}, {"measurement": "TGI", "setting": "[4]", "result": 6.25, "unit": "µM"}, {"measurement": "GI50", "setting": "[5]", "result": 0.361, "unit": "µM"}, {"measurement": "TGI", "setting": "[5]", "result": 6.39, "unit": "µM"}, {"measurement": "GI50", "setting": "[9]", "result": 3.23, "unit": "µM"}, {"measurement": "TGI", "setting": "[9]", "result": 13.8, "unit": "µM"}, {"measurement": "GI50", "setting": "[7]", "result": 0.445, "unit": "µM"}, {"measurement": "TGI", "setting": "[7]", "result": 3.22, "unit": "µM"}, {"measurement": "GI50", "setting": "[8]", "result": 0.0557, "unit": "µM"}, {"measurement": "TGI", "setting": "[8]", "result": 7.23, "unit": "µM"}]}
{"compound": "CC(C)/C=C1\\CCC(CN2CCCC2)C1=O", "note": "(stereo not drawn)", "values": [{"measurement": "TGI", "setting": "[1]", "result": 4.8, "unit": "µM"}, {"measurement": "TGI", "setting": "[2]", "result": "> 59", "unit": "µM"}, {"measurement": "TGI", "setting": "[3]", "result": 42.3, "unit": "µM"}, {"measurement": "TGI", "setting": "[5]", "result": 3.71, "unit": "µM"}, {"measurement": "TGI", "setting": "[6]", "result": 21, "unit": "µM"}, {"measurement": "TGI", "setting": "[9]", "result": 33.9, "unit": "µM"}, {"measurement": "TGI", "setting": "[7]", "result": 47.4, "unit": "µM"}, {"measurement": "TGI", "setting": "[8]", "result": 32.5, "unit": "µM"}]}
